According to patent US4250259A, “Microbiological production of ketones from C3 -C6 secondary alcohols” (priority 1979, dated 1981):

Legend:
Format in all cases: cell-based
[1] = system: Methylobacterium organophilum XX (ATCC 27886); assay: sec-alcohols to ketones by resting cell suspensions
Experimental: (§1) The pH of the nutrient medium was adjusted to 7.0 by the addition of acid or base and 50 ml. samples of the nutrient medium were charged into a plurality of 300 ml. shaker flasks. The shaker flasks were inoculated with an inoculating loop of cells from an agar plate containing homogeneous colonies of the microorganisms on the plate (the purity of the isolates was confirmed by microscopic examination). The isolates had been maintained on methanol (0.4% V/V) agar plates or on agar plates under an atmosphere of methane and air having a 1:1 V/V gas ratio which had been transferred every two weeks. For growth on methanol, the medium was supplemented with 0.4% methanol. For growth on methane, the gaseous phase of the inoculated flasks was replaced with a gas mixture comprised of methane and air having a ratio of 1:1 on a V/V basis. The inoculated flasks were sealed air-tight and were incubated on a rotary shaker of orbital radius 2.5 cm. at 250 rpm and at 30° C. for two days until turbidity in the medium had developed. The cells were harvested by centrifugation at 10,000×g. at 4° C. for 30 minutes. The cell pellet was washed twice with a 0.05 M phosphate buffer at a pH of 7.0 (containing 0.02 M MgCl2). The washed cells were then suspended in a 0.05 M phosphate buffer at pH 7.0.
(§2) A 0.5 ml. sample of each washed cell suspension (2 mg. cells) was put into 10 ml. vials at 4° C. which were sealed with a rubber cap. The gaseous phase of the vials was removed with vacuum and then was replaced with a gas mixture of the substrate reactant (i.e., alkane or secondary alcohol) and oxygen at a 1:1 V/V ratio. (In the case of a liquid substrate, i.e., secondary alcohol, 10 μl of the substrate was put in the 10 ml. vials). […] Samples of product (1-3 μl) were withdrawn periodically with a microsyringe and the products were analyzed by gas chromatography (ionization flame detector column).
(§3) The procedure in Example 1 was repeated wherein a plurality of the methane-utilizing methylotrophic microorganisms were each grown aerobically in a nutrient medium containing methane as the alcohol dehydrogenase enzyme inducer and as the major carbon and energy source for growth. The cells were harvested and washed as described in Example 1. The resting microbial cells of the induced methane-grown methane-utilizing methylotrophic microorganisms were then contacted with C3 -C6 secondary alcohols in a buffered solution by the procedure of Example 1.
(§4) In this example, the procedure in Example 1 was repeated except that a plurality of methane-utilizing methylotrophic microorganisms were each aerobically grown in a methanol-containing nutrient medium instead of a methane-containing medium. The nutrients in the medium were the same as indicated in Example 1 except that 0.4% V/V methanol was used as the alcohol dehydrogenase inducer and major source of carbon and energy for growth. Following growth, the cells were harvested and washed as described in Example 1.
(§5) The resting cells of the induced methanol-grown methylotrophic microorganisms were then contacted with secondary alcohols in a buffered solution by the procedure described in Example 1.
(§6) The procedure in Example 1 was repeated except that the methylotrophic microorganisms were each aerobically grown in an alcohol dehydrogenase-inducing growth medium containing methylamine or methyl formate as the alcohol dehydrogenase enzyme inducer and growth substrate instead of methane. The nutrients in the medium were the same as indicated in Example 1 except that 0.4% V/V of the alcohol dehydrogenase-inducer growth substrate was used as the major carbon and energy source. The cells were harvested and washed as described in Example 1. The resting microbial cells were then contacted with C3 -C6 secondary alcohols in a buffered solution by the conversion procedure of Example 1.

[2] = system: Methylosinus trichosporium OB3b (NRRL B-11,196); assay: as above
Experimental: as §1, §2, §3, §4, §5, §6

[3] = system: Torulopsis sp. Strain A1 (NRRLY-11,419); assay: sec-alcohols to ketones by cell suspensions of yeasts
[4] = system: Methylomonas methanica S1 (NRRL B-11,199); assay: sec-alcohols to ketones by resting cell suspensions
Experimental: as §1, §2, §3, §4, §5

[5] = system: Methylocystis parvus OBBP (NRRL B-11,198); assay: as above
Experimental: as §1, §2, §3, §4, §5

[6] = system: Methylobacter capsulatus Y (NRRL B-11,201); assay: as above
Experimental: as §1, §2, §3, §4, §5

[7] = system: Methylococcus capsulatus, Texas (ATCC 19069); assay: as above
Experimental: as §1, §2, §3, §4, §5

[8] = system: Methanomonas methylovora ATCC 21852 (Obligate); assay: as above
Experimental: as §1, §2
(§7) The procedure in Example 1 was repeated except that a plurality of methanol-utilizing methylotrophic microorganisms were each aerobically grown in a methanol-containing nutrient medium instead of a methane-containing medium. The nutrients in the medium were the same as indicated in Example 1 except that 0.4% V/V methanol was used as the alcohol dehydrogenase inducer and as the major carbon and energy source for growth. The cells were harvested and washed as described in Example 1. The resting microbial cells of the induced methanol-grown methanol-utilizing methylotrophic microorganisms were then contacted with C3 -C6 secondary alcohols in a buffered solution by the procedure of Example 1.
as §6

[9] = system: Pseudomonas sp. ATCC 21438 (Facultative); assay: as above
Experimental: as §1, §2, §7, §6

[10] = system: Candida utilis ATCC 26387; assay: sec-alcohols to ketones by cell suspensions of yeasts

| Structure (SMILES) | Conversion Rates, sec-alcohol to corresponding ketone ([1]; cells grown on methane) [μmoles/hr/mg protein] | Conversion Rates, sec-alcohol to corresponding ketone ([1]; cells grown on methanol) [μn moles/hr/mg protein] | Conversion Rates, sec-alcohol to corresponding ketone ([1]; methyl formate-grown cells) [μmoles/hr/mg protein] | Conversion Rates, sec-alcohol to corresponding ketone ([2]; cells grown on methane) [μmoles/hr/mg protein] | Conversion Rates, sec-alcohol to corresponding ketone ([2]; cells grown on methanol) [μn moles/hr/mg protein] | Conversion Rates, sec-alcohol to corresponding ketone ([2]; methyl formate-grown cells) [μmoles/hr/mg protein] | Conversion Rate, sec-alcohol to corresponding ketone ([3]; Growth Substrate Ethanol) | Conversion Rate, sec-alcohol to corresponding ketone ([3]; Growth Substrate Methanol) | Conversion Rate, sec-alcohol to corresponding ketone ([3]; Growth Substrate Methylamine) | Conversion Rate, sec-alcohol to corresponding ketone ([3]; Growth Substrate Methylformate) | Conversion Rate, sec-alcohol to corresponding ketone ([3]; Growth Substrate Propylamine) | Conversion Rates, sec-alcohol to corresponding ketone ([4]; cells grown on methane) [μmoles/hr/mg protein] | Conversion Rates, sec-alcohol to corresponding ketone ([4]; cells grown on methanol) [μn moles/hr/mg protein] | Conversion Rates, sec-alcohol to corresponding ketone ([5]; cells grown on methane) [μmoles/hr/mg protein] | Conversion Rates, sec-alcohol to corresponding ketone ([5]; cells grown on methanol) [μn moles/hr/mg protein] | Conversion Rates, sec-alcohol to corresponding ketone ([6]; cells grown on methane) [μmoles/hr/mg protein] | Conversion Rates, sec-alcohol to corresponding ketone ([6]; cells grown on methanol) [μn moles/hr/mg protein] | Conversion Rates, sec-alcohol to corresponding ketone ([7]; cells grown on methane) [μmoles/hr/mg protein] | Conversion Rates, sec-alcohol to corresponding ketone ([7]; cells grown on methanol) [μn moles/hr/mg protein] | Conversion Rates, sec-alcohol to corresponding ketone ([8]; methanol-grown cells) [μmoles/hr/mg protein] | further results |
| --- | --- | --- | --- | --- | --- | --- | --- | --- | --- | --- | --- | --- | --- | --- | --- | --- | --- | --- | --- | --- | --- |
| CC(C)O [2-Propanol, 2-propanol] | 0.5 | 0.70 | 0.48 | 0.25 | 0.30 | 0.95 | 4.2 μmoles/hr/mg of protein | 4.5 μmoles/hr/mg of protein | 4.3 μmoles/hr/mg of protein | 4.5 μmoles/hr/mg of protein | 3.2 μmoles/hr/mg of protein | 0.40 | 0.35 | 0.32 | 0.25 | 0.15 | 0.52 | 0.80 | 0.75 | 0.28 | Conversion Rates, sec-alcohol to corresponding ketone ([8]; methyl formate-grown cells): 0.62 μmoles/hr/mg protein; Conversion Rates, sec-alcohol to corresponding ketone ([8]; methylamine-grown cells): 0.82 μmoles/hr/mg protein; Conversion Rates, sec-alcohol to corresponding ketone ([9]; methanol-grown cells): 0.45 μmoles/hr/mg protein; Conversion Rates, sec-alcohol to corresponding ketone ([9]; methyl formate-grown cells): 0.52 μmoles/hr/mg protein; Conversion Rates, sec-alcohol to corresponding ketone ([9]; methylamine-grown cells): 1.0 μmoles/hr/mg protein; Conversion Rate, sec-alcohol to corresponding ketone ([10]; Growth Substrate Ethanol): 5.2 μmoles/hr/mg of protein; Conversion Rate, sec-alcohol to corresponding ketone ([10]; Growth Substrate Methanol): 6.2 μmoles/hr/mg of protein; Conversion Rate, sec-alcohol to corresponding ketone ([10]; Growth Substrate Methylamine): 5.0 μmoles/hr/mg of protein; Conversion Rate, sec-alcohol to corresponding ketone ([10]; Growth Substrate Methylformate): 5.6 μmoles/hr/mg of protein; Conversion Rate, sec-alcohol to corresponding ketone ([10]; Growth Substrate Propylamine): 4.2 μmoles/hr/mg of protein |
| CCCCC(C)O (stereo not drawn) [2-Hexanol, 2-hexanol] | 0.12 | 1.1 | 0.70 | 0.07 | 0.9 | 0.72 | 0.20 μmoles/hr/mg of protein | 0.21 μmoles/hr/mg of protein | 0.12 μmoles/hr/mg of protein | 0.25 μmoles/hr/mg of protein | 0.10 μmoles/hr/mg of protein | 0.01 | 0.04 | 0.065 | 0.05 | 0.1 | 0.12 | 1.0 | 1.3 | 1.0 | Conversion Rates, sec-alcohol to corresponding ketone ([8]; methyl formate-grown cells): 0.60 μmoles/hr/mg protein; Conversion Rates, sec-alcohol to corresponding ketone ([8]; methylamine-grown cells): 0.09 μmoles/hr/mg protein; Conversion Rates, sec-alcohol to corresponding ketone ([9]; methanol-grown cells): 0.7 μmoles/hr/mg protein; Conversion Rates, sec-alcohol to corresponding ketone ([9]; methyl formate-grown cells): 0.80 μmoles/hr/mg protein; Conversion Rates, sec-alcohol to corresponding ketone ([9]; methylamine-grown cells): 0.07 μmoles/hr/mg protein; Conversion Rate, sec-alcohol to corresponding ketone ([10]; Growth Substrate Ethanol): 0.72 μmoles/hr/mg of protein; Conversion Rate, sec-alcohol to corresponding ketone ([10]; Growth Substrate Methanol): 0.8 μmoles/hr/mg of protein; Conversion Rate, sec-alcohol to corresponding ketone ([10]; Growth Substrate Methylamine): 0.61 μmoles/hr/mg of protein; Conversion Rate, sec-alcohol to corresponding ketone ([10]; Growth Substrate Methylformate): 0.75 μmoles/hr/mg of protein; Conversion Rate, sec-alcohol to corresponding ketone ([10]; Growth Substrate Propylamine): 0.52 μmoles/hr/mg of protein |
